In patent EP0471516A1, “Tricyclic heterocyclic derivatives” (IMPERIAL CHEMICAL INDUSTRIES PLC, priority 1990, dated 1992):

Columns and labels:
topoisomerase-II = test: Test (a): in vitro topoisomerase-II interaction assay, DNA fragmentation of labelled pUC18 plasmid; type: biochemical, human; settings: test compound at 100 µM; for activity in Test (a): DNA fragmentation with topoisomerase-II from HeLa cells
Description: (a) An in vitro assay which determines the ability of a test compound to interact with the enzyme topoisomerase-II, obtained in partially purified form from human HeLa cervical carcinoma cells grown in cell culture. Aliquots of the topoisomerase-II so obtained are added to a mixture of plasmid DNA [0.5 ng of a linearised pUC18 plasmid labelled with [³²P]-ATP], test compound (dissolved in dimethylsulphoxide) and a conventional buffer solution comprising essential salts, bovine serum albumin, ATP, EDTA and 2-mercaptoethanol. The mixture is incubated at 30°C for 10 minutes. Sodium dodecylsulphate and proteinase K are added in turn to give final concentrations of 1% w/v and 2 mg/ml respectively and the mixture is heated to 45°C to effect proteolysis. The resultant mixture is analysed by electrophoresis on a polyacrylamide gel at pH 8.3 and 450 volts for one hour. Thereafter the gel is fixed, dried and autoradiogrammed to determine the extent of DNA fragmentation.

[1] = test system: small-cell lung cancer cell line N417A; test: Test (b): growth inhibition of N417A cells in culture, tetrazolium salt method; type: cell-based; settings: read-out: IC₅₀
Description: (b) Any assay which determines the ability of a test compound to inhibit the growth of the small-cell lung cancer cell line N417A in cell culture. The test is similar to that described by T. Mosmann (J. Immunol. Meths., 1983, 65, 55-63) but using the tetrazolium salt method of J. Carmichael et al. (J. Cancer Res., 1987, 47, 936-942) to assess the reductive capacity of any viable cells.

SMILES	etoposide concentration giving activity equivalent to the test compound in Test (a) (topoisomerase-II) [µM]	activity in Test (a) (topoisomerase-II)	IC50 [1] [µM]
COc1cc(Cn2c3ccccc3c(=O)c3ccc(S(=O)(=O)CCN(C)C)cc32)cc(OC)c1O [3-(2-dimethylaminoethylsulphonyl)-10-(4-hydroxy-3,5-dimethoxybenzyl)-9,10-dihydroacridin-9-one]	100	significant activity	0.8
COc1cc(Cn2c3ccccc3c(=O)c3ccc(Cl)cc32)cc(OC)c1O [3-chloro-10-(4-hydroxy-3,5-dimethoxybenzyl)-9,10-dihydroacridin-9-one]	25	significant activity	0.4
COc1cc(Cn2c3ccccc3c(=O)c3cccnc32)cc(OC)c1O [10-(4-hydroxy-3,5-dimethoxybenzyl)-5,10-dihydrobenzo[b][1,8]naphthyridin-5-one]	50	significant activity	3.7
